Results published in ChEMBL document CHEMBL5725428, “15-aryl prostaglandins as EP4 agonists, and methods of use thereof” (2017).

Legend:
[1] = biological target: Prostaglandin E2 receptor EP4 subtype (Homo sapiens, UniProt P35408); test: (§1) cAMP Assay: A 384-well drug plate was prepared to contain 6 test compounds, PGE2 and cAMP in 16 serial dilutions in triplicate, using a Biomek station. HEK-EBNA cells expressing a target PG receptor subtype (EP2 or EP4) were suspended in a stimulation buffer (HBSS, 0.1% BSA, 0.5 mM IBMX and 5 mM HEPES, pH 7.4) in a density of 10^4 cells/5 microliters. The reaction was initiated by mixing 5 microliters drug dilutions with 5 microliters of HEK-EBNA cells in a well, carried out for 30 min at room temperature, and followed by the addition of 5 microliters anti-cAMP acceptor beads in the control buffer with Tween-20 (25 mM NaCl, 0.03% Tween-20, 5 mM HEPES, pH 7.4). After 30 min in the dark at room temperature, the mixtures were incubated with 15 microliters biotinylated-cAMP/streptavidin donor beads in Lysis/Detection buffer (0.1% BSA, 0.3% Tween-20 and 5 mM HEPES, pH 7.4) for 45 min at room temperature. Fluorescence changes were read using a Fusion-alpha microplate reader.; assay type: cell-based
Prostaglandin E2 receptor EP4 subtype, sequence (P35408 whole entry): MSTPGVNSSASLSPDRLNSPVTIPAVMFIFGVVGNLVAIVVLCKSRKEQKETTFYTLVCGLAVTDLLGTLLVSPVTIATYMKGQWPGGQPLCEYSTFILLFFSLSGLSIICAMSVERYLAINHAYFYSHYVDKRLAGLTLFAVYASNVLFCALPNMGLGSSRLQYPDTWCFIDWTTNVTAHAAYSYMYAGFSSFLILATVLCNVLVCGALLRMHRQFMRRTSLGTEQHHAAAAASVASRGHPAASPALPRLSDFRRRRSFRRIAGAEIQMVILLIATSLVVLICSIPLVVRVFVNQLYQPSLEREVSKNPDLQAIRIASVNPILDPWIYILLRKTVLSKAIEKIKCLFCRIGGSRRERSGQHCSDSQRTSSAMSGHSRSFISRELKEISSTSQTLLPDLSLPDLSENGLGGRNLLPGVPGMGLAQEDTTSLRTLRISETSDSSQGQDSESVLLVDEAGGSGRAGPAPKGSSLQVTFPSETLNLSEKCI

[2] = biological target: Prostaglandin E2 receptor EP2 subtype (Homo sapiens, UniProt P43116); test: as §1; assay type: cell-based
Prostaglandin E2 receptor EP2 subtype, sequence (P43116 whole entry): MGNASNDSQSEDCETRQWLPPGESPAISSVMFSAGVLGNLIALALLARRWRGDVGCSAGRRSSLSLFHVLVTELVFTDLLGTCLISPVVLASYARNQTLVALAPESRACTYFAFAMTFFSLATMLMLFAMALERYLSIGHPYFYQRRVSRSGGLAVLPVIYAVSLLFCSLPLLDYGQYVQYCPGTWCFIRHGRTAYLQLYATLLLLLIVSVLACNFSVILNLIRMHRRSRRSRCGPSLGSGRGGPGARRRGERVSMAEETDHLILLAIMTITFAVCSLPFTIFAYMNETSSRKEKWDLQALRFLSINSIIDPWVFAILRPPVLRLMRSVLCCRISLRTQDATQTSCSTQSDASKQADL

- Ki [1]: 1.08 µM
- Ki [2]: 7.49 µM
SMILES: Cc1cc(Cl)ccc1-c1cc(C(O)/C=C/[C@H]2CCC(=O)N2CCCc2ccc(C(=O)O)cc2)ccc1F (single isomer, unassigned)
